Reference: patent US12161647B2, “Treating hearing loss” (Massachusetts Eye and Ear Infirmary, priority 2012, dated 2024)

Assays:
[1] = system: neonatal organ of Corti explants; assay: Neonatal organ of Corti explant culture, hair cell number; type: cell-based, mouse
Description: Cochleae of 3-d-postnatal C57BL/6 or Mos-iCsp3; Pou4f3-Cre double transgenic mice of both sexes were dissected in Hanks solution (Invitrogen). To obtain a flat cochlear surface preparation, the spiral ganglion, Reissner's membrane, and the most basal cochlear segment were removed. Explants were plated onto 4 well plates (Greiner Bio-One) coated with poly-L-ornithine (0.01%, Sigma) and laminin (50 μg/ml, Becton Dickinson). Cochlear explants were cultured in DMEM (Invitrogen) with 10% fetal bovine serum. All cultures were maintained in a 5% CO2/20% O2-humidified incubator (Forma Scientific).
For explants, the organs of Corti were fixed for 15 min with 4% paraformaldehyde in PBS. […] Primary antibodies were detected with secondary antibodies conjugated with Alexa 488 and 647 (Molecular Probes). The samples were stained with rhodamine phalloidin (Invitrogen) for 15 min and viewed by confocal fluorescence microscopy (TCS SP5, Leica).
Cell counting for spheres was performed with MetaMorph software. The cell number was determined from DAPI- or Hoechst-positive nuclei. […] For explants, inner hair cells, outer hair cells, and supporting cells in the outer hair cell region were counted on cochlear whole mounts. […] High-power images of the full-length cochlea or cochlear explant cultures were assembled and analyzed in PhotoShop CS4 (Adobe). […] Density (cells per 100 μm) was then calculated for each segment. […]

Atoh1 mRNA = assay: qRT-PCR of Atoh1 in deafened mature cochlea after round window administration; type: in vivo, mouse
Description: 4-week-old mice were exposed free-field, awake and unrestrained, in a small reverberant chamber (22). Acoustic trauma was produced by a 2 h exposure to an 8-16 kHz octave band noise presented at 116 dB SPL. The exposure stimulus was generated by a custom white-noise source, filtered (Brickwall Filter with a 60 dB/octave slope), amplified (Crown power amplifier), and delivered (JBL compression driver) through an exponential horn fitted securely to a hole in the top of a reverberant box.
4-week-old mice weighing 12 to 16 g were used. Before surgery, the animals were anesthetized with ketamine (20 mg/kg, i.p.) and xylazine (100 mg/kg, i.p.), and an incision was made posterior to the pinna near the external meatus after local administration of lidocaine (1%). […]
The organs of Corti were dissected in HBSS (Invitrogen) and stored in RNAlater (Ambion) at −80° C. until further use. […] Samples were analyzed in 96 wells in triplicate by qPCR (Applied Biosystems 7900HT), and PCR thermal cycling conditions were as follows: initial denaturation at 95° C. for 2 min, denaturation at 95° C. for 15 s, annealing/extension at 60° C. for 1 min for 45 cycles. […] Relative gene expression was analyzed by using the ΔΔCT method. Gene expression was calculated relative to 18S RNA, and the amount of cDNA applied was adjusted so that the Ct value for 18S RNA was between 8 and 11. […]

C[C@H](NC(=O)[C@@H](O)c1cc(F)cc(F)c1)C(=O)N[C@@H]1C(=O)N(C)c2ccccc2-c2ccccc21 [LY411575, N-2((2S)-2-(3,5-difluorophenyl)-2-hydroxyethanoyl)-N1-((7S)-5-methyl-6-oxo-6,7-dihydro-5H-dibenzo[b,d]azepin-7-yl)-l-alaninamide]
increase in number of myosin VIIa-positive cells in the outer hair cell region compared to the control ([1]; LY411575 1 μM, 72 h, p<0.05): 30 cells/100 μm
number of hair cells in wild-type organ of Corti (Wt) ([1]; apex, mid-apex and mid-base, cultured 3 d): Increased
Atoh1 expression above the level post-noise exposure (Atoh1 mRNA; 1 d after LY411575 treatment, round window niche): 2.28 ×
Atoh1 expression (Atoh1 mRNA; 3 d after treatment, p<0.05): remained elevated
